Test results reported in US20130189775A1, “MODULATION OF THE […] RECEPTOR mTOR TO INHIBIT STEM CELL DIFFERENTIATION INTO NEURONS” (priority 2011, published 2013).
pEC50, pKd: −log10 of the molar value. “Also recorded” adds a separate entry of the source.

Legend:
ReN cells [1] = test: ReN cell neural progenitor differentiation, phase contrast microscopy; format: cell-based, human; details: for block of neural progenitor differentiation by PI3-K / Akt inhibitors: ReN cells differentiated in presence of inhibitor for 6-7 days (FIG. 3, FIG. 4)
Description: To evaluate the role of kinases in the differentiation of neural stem cells, we added kinase inhibitors from the BIOMOL kinase inhibitor library to the culture during the differentiation process. Kinase inhibitors were replaced on alternate days during media change. Cultures were grown for 6-7 days. We used phase contrast imaging and immunocytochemistry to understand the difference in the morphological differentiation.
General procedure for neuronal stem cell culture on laminin surface: • 96 well CellBind™ treated plates were washed with 70% ethanol and kept ON in the hood • Next day morning, plates were washed twice with 1×PBS • Laminin (50 μl, 20 μg/ml) was added to the wells and incubated 37° C. incubator for 5 hrs. • Wells were washed with 1×PBS after incubation. • Cells were seeded at 20,000 cells/well • For undifferentiated cells, the cultures were grown for 9 days. Media was changed everyday with growth factor supplementation • For differentiated cells, the growth factor deprived media was added after next day after seeding and cells were grown further for 6 days with media changes every other day. • Rapamycin and other inhibitors were added to the cells when the media was changed to growth factor independent media. Media was maintained throughout the study and changed on alternate days. ReNcell NSC Maintenance Medium contains DMEM/F12 w/o HEPES, w/L-Glutamine, human serum albumin, human transferrin, putrescine dihydrochloride, human recombinant insulin, L-thyroxine, Tri-iodo-thyronine, progesterone, sodium selenite, heparin, corticosterone. […] The growth factors used were EGF (Epidermal growth factor) and bFGF (Basic fibroblast growth factor).
Kinase inhibitors (1 μM) was added to the cells next day after seeding and replenished during media changes on alternate days. Phase contrast microscopy was done after 6 days as described below. […]
After the experiment, the cells were fixed with 4% paraformaldehyde and washed thrice with 1×PBS. Cells were assessed using a Ziess Axiovert 200M inverted Brightfield/fluorescence microscope.

[2] = system: quiescent human epidermoid carcinoma A431; test: EGF-induced DMR response of quiescent A431 cells (optical biosensor); format: cell-based
Source text: The DMR signal mediated through a particular target is an integrated and quantifiable signal that is a sum of contributions from mass redistribution occurring at different distances away from the sensor surface. Because of the complex nature of cell signaling, the activation of distinct cell signaling mediated through different targets might result in similar overall DMR signal. However, because of the participation of unique sets of cellular targets for a specific signaling event, the modulation profiles mediated by a predetermined set of selective modulators might provide a means to classify the specificity of cell signaling being activated by a particular stimulus. Therefore, the DMR response can be treated as a unique and perfect readout for systems biology studies of living cells. […] The effect of various known inhibitors/drugs on the DMR response of quiescent A431 cells linked the cell response to mainly the Ras/mitogen-activated protein (MAP) kinase pathway, which primarily proceeds through MEK.
Another biosensor output parameter can be the kinetics of any of the aspects of data output. For example, the rate at the completion of the phase transitions. For example, how fast are the phase transitions completed or how long does it take to complete data output. Another example of the kinetics that can be measured would be the length of time for which an overall phase of the data output takes. Another example is the total duration of time of one or both of the P- and N-DMR phases. Another example is the rate or time in which it takes to acquire the total amplitudes of one or both of the P- and N-DMR phases. Another example can be the transition time τ from the P- to N-DMR phase. The kinetics of both P-DMR and N-DMR events or phases can also be measured. For example, stimulation of human quiescent human epidermoid carcinoma A431 with epidermal growth factor (EGF) results in a dynamic response consisting of at least three phases. […]

ReN cells [3] = test: Epic label-free RWG biosensor receptor assay on ReN cells; format: cell-based, human; details: Epic single step assay; for agonist response profile, undifferentiated versus differentiated cells: ReN cells (FIG. 6); for agonist response of differentiated cells: ReN cells differentiated without rapamycin (FIG. 6)
Description: The label-free biosensor assays for various receptors was done in the presence of various concentrations of a typical agonist using Corning Epic® system. Assay on undifferentiated cells was carried out simultaneously. […] Undifferentiated receptor profiles were similar to rapamycin treated cells indicating the blockage of differentiation by rapamycin.
ReN Cells were treated with or without rapamycin (5 μM) for 6 days. Cells were washed with HBSS and loaded onto Epic instrument for a single step assay with various receptor agonists. Undifferentiated cells grown for 3-4 days (till confluency) and run of Epic instrument as described above.

Question: How did the “block of neural progenitor differentiation by PI3-K / Akt inhibitors” value (ReN cells [1]) turn out when `O=c1[nH]c2ccccc2n1C1CCN(Cc2ccc(-c3[nH]c4cc5ncnc5cc4nc3-c3ccccc3)cc2)CC1` [A6730] was run?
Answer: did not block the neural progenitor differentiation

Question: For `COc1cc2ncnc(Nc3cccc(Cl)c3)c2cc1OC` [AG1478], which “suppression of EGF-induced DMR response” value [2] is on record?
Answer: fully suppressed

Question: `Nc1ncnc2c1ncn2[C@@H]1O[C@H](CO)[C@@H](O)[C@H]1O` [Adenosine] was tested. Which “agonist response profile, undifferentiated versus differentiated cells” value (ReN cells [3]) did it give?
Answer: different profiles

Question: Which “block of neural progenitor differentiation by PI3-K / Akt inhibitors” value (ReN cells [1]) does the source give for `O=C(O)c1ccc2nc(-c3ccccc3)c(-c3ccccc3)nc2c1` [BML-257] here?
Answer: did not block the neural progenitor differentiation

Question: How did the “agonist response of differentiated cells” value (ReN cells [3]) turn out when `NCCCC(=O)O` [GABA] was run?
Answer: did not responds to these stimuli

Question: `C[C@@H](N)[C@H]1CC[C@H](C(=O)Nc2ccncc2)CC1` [Y27632] was tested. Which “block of neural progenitor cell differentiation by ROCK inhibitor” value (ReN cells [1]; Y27632 1 μM, 6-7 days (FIG. 5)) did it give?
Answer: had no effect on the differentiation process; also recorded: did not block neural progenitor cell differentiation

Question: Which “agonist response profile, undifferentiated versus differentiated cells” value (ReN cells [3]) does the source give for `NCCc1ccc(O)c(O)c1` [dopamine] here?
Answer: different profiles

Question: With `CNC[C@H](O)c1ccc(O)c(O)c1` [epinephrine] as the compound, how does the “agonist response profile, undifferentiated versus differentiated cells” value (ReN cells [3]) read?
Answer: different profiles

Question: With `NCCc1c[nH]c2ccc(O)cc12` [serotonin] as the compound, how does the “agonist response of differentiated cells” value (ReN cells [3]) read?
Answer: did not responds to these stimuli

Question: How did the pEC50 ([2]; EGF stimulation, read-out: EC50 from amplitudes of the N-DMR signals) turn out when EGF: epidermal growth factor was run?
Answer: ~8.84

Question: And the pKd ([2]; EGF stimulation, read-out: Kd from one-phase decay constant κ of the N-DMR signal)?
Answer: 8.24
